Measured values: US9131696B2, “Herbicidal compositions comprising fluroxypyr and flumetsulam” (Dow AgroSciences LLC, priority 2012, dated 2015)

Tests used:
Test in all cases: Post-emergence field trial, visual weed control
Format in all cases: in vivo
[1] = test system: POLCO = buckwheat, wild (Polygonum convolvulus L.); details: 28 days after application, foliar
Procedure: (§1) Multiple post-emergence field trials were conducted under field conditions in the United States (Mississippi, South Dakota, and Minnesota) and Mexico. Trial sites were located in commercially grown fields of corn (ZEAMX), spring wheat (TRZAS), and winter wheat (TRZAW), using standard herbicide small plot research methodology. Post-emergence trial plot size varied from 2 to 3 meter (m)×4 to 5 m (width×length) with 4 replicates per treatment. The crops were grown using normal cultural practices for fertilization, seeding, watering, and maintenance to ensure good growth of the crops and the weeds.
(§2) All treatments in the post-emergence field trials were applied using a backpack compressed carbon dioxide (CO2) or nitrogen (N2) sprayer with flat fan nozzles calibrated to apply 94 to 250 liters per hectare (L/ha) spray volume at approximately 30-40 pounds per square inch (psi) nozzle pressure. Commercially available products of fluoroxypyr-meptyl (STARANE® 200, 200 grams acid equivalent per liter (g ae/L) and fluoroxypyr-meptyl EC 240 g ae/L) and flumetsulam (75WDG) were mixed in water at appropriate formulated product rates to achieve the desired rates based on a unit area of application (hectare) to achieve the desired rates as shown. […] Treatments were rated at 7 to 45 days after application (DAA) as compared to the untreated control plants. Visual weed control was scored on a scale of 0 to 100 percent where “0” corresponds to no injury and “100” corresponds to complete kill.
(§3) The trial sites had naturally occurring populations of weeds. The weed spectrum included, but was not limited to, AMARE, AMASS, CHEAL, CHEMU, IPOLA, KCHSC, POLCO, RUMCR, and SASKR.
(§4) A t-test (alpha=0.05) between Colby predictions and observed combinations was used to test for significant differences indicating synergy or antagonism using replicate data.
(§5) The following equation was used to calculate the expected activity of mixtures containing two active ingredients, A and B: Expected=A+B−(A×B/100) • A=observed efficacy of active ingredient A at the same concentration as used in the mixture; • B=observed efficacy of active ingredient B at the same concentration as used in the mixture.

[2] = test system: CHEMU = goosefoot, nettleleaf (Chenopodium murale L.); details: 30 days after application, foliar
Procedure: as §1, §2, §3, §4, §5

[3] = test system: SASKR = thistle, Russian (Salsola iberica Sennen & Pau); details: 29 days after application, foliar
Procedure: as §1, §2, §3, §4, §5

[4] = test system: AMARE = pigweed, redroot (Amaranthus retroflexus L.); details: foliar
Procedure: as §1, §2, §3, §4, §5

[5] = test system: CHEAL = lambsquarters, common (Chenopodium album L.); details: 30 days after application, foliar
Procedure: as §1, §2, §3, §4, §5

[6] = test system: IPOLA = morningglory, pitted (Ipomoea lacunosa L.); details: 28 days after application, foliar
Procedure: as §1, §2, §3, §4, §5

[7] = test system: AMASS = pigweed species (Amaranthus sp.); details: foliar; for Flumetsulam % Visual Weed Control: flumetsulam 20 g ai/ha
Procedure: as §1, §2, §3, §4, §5

[8] = test system: RUMCR = dock, curly (Rumex crispus L.); details: 45 days after application, foliar
Procedure: as §1, §2, §3, §4, §5

[9] = test system: KCHSC = kochia (Kochia scoparia (L.) Schrad.); details: 28 days after application, foliar
Procedure: as §1, §2, §3, §4, §5

CCCCCCC(C)OC(=O)COc1nc(F)c(Cl)c(N)c1Cl (racemic) [Fluroxypyr-Meptyl, (RS)-1-methylheptyl 4-amino-3,5-dichloro-6-fluoro-2-pyridyloxyacetate]
Fluroxypyr-Meptyl % Visual Weed Control ([1]; fluroxypyr-meptyl 35 g ae/ha): 38%
Fluroxypyr-Meptyl % Visual Weed Control ([1]; fluroxypyr-meptyl 70 g ae/ha): 64%
Fluroxypyr-Meptyl % Visual Weed Control ([2]; fluroxypyr-meptyl 50 g ae/ha): 20%
Fluroxypyr-Meptyl % Visual Weed Control ([2]; fluroxypyr-meptyl 75 g ae/ha): 28%
Fluroxypyr-Meptyl % Visual Weed Control ([3]; fluroxypyr-meptyl 35 g ae/ha): 23%
Fluroxypyr-Meptyl % Visual Weed Control ([4]; 13 days after application, fluroxypyr-meptyl 110 g ae/ha): 8%
Fluroxypyr-Meptyl % Visual Weed Control ([4]; 28 days after application, fluroxypyr-meptyl 35 g ae/ha): 3%
Fluroxypyr-Meptyl % Visual Weed Control ([4]; 28 days after application, fluroxypyr-meptyl 110 g ae/ha): 13%
Fluroxypyr-Meptyl % Visual Weed Control ([5]; fluroxypyr-meptyl 75 g ae/ha): 20%
Fluroxypyr-Meptyl % Visual Weed Control ([6]; fluroxypyr-meptyl 70 g ae/ha): 20%
Fluroxypyr-Meptyl % Visual Weed Control ([7]; 7 days after application, fluroxypyr-meptyl 75 g ae/ha): 15%
Fluroxypyr-Meptyl % Visual Weed Control ([7]; 14 days after application, fluroxypyr-meptyl 50 g ae/ha): 21%
Fluroxypyr-Meptyl % Visual Weed Control ([7]; 14 days after application, fluroxypyr-meptyl 75 g ae/ha): 18%
Fluroxypyr-Meptyl % Visual Weed Control ([8]; fluroxypyr-meptyl 75 g ae/ha): 50%
Fluroxypyr-Meptyl % Visual Weed Control ([9]; fluroxypyr-meptyl 35 g ae/ha): 30%

Cc1ccn2nc(S(=O)(=O)Nc3c(F)cccc3F)nc2n1 [Flumetsulam, 2′,6′-difluoro-5-methyl[1,2,4]triazolo-[1,5-a]pyrimidine-2-sulfonanilide]
Flumetsulam % Visual Weed Control ([1]; flumetsulam 18 g ai/ha): 0%
Flumetsulam % Visual Weed Control ([1]; flumetsulam 35 g ai/ha): 0%
Flumetsulam % Visual Weed Control ([2]; flumetsulam 15 g ai/ha): 57%
Flumetsulam % Visual Weed Control ([2]; flumetsulam 30 g ai/ha): 66%
Flumetsulam % Visual Weed Control ([2]; flumetsulam 60 g ai/ha): 69%
Flumetsulam % Visual Weed Control ([3]; flumetsulam 9 g ai/ha): 67%
Flumetsulam % Visual Weed Control ([4]; 13 days after application, flumetsulam 18 g ai/ha): 81%
Flumetsulam % Visual Weed Control ([4]; 28 days after application, flumetsulam 35 g ai/ha): 45%
Flumetsulam % Visual Weed Control ([5]; flumetsulam 15 g ai/ha): 31%
Flumetsulam % Visual Weed Control ([5]; flumetsulam 30 g ai/ha): 35%
Flumetsulam % Visual Weed Control ([5]; flumetsulam 60 g ai/ha): 40%
Flumetsulam % Visual Weed Control ([6]; flumetsulam 18 g ai/ha): 33%
Flumetsulam % Visual Weed Control ([7]; 7 days after application): 79%
Flumetsulam % Visual Weed Control ([7]; 14 days after application): 81%
Flumetsulam % Visual Weed Control ([8]; flumetsulam 15 g ai/ha): 40%
Flumetsulam % Visual Weed Control ([8]; flumetsulam 30 g ai/ha): 52%
Flumetsulam % Visual Weed Control ([8]; flumetsulam 60 g ai/ha): 70%
Flumetsulam % Visual Weed Control ([9]; flumetsulam 35 g ai/ha): 58%
